The values below come from patent publication US20040052828A1, “Consumable product including consumable component and alpha-keto enamine derivatives” (priority 2000, published 2004).

Holding throughout (assay type): in vivo, human
Assay [1] deals with trained panelists. The assay can be described thus: Cooling threshold in water, triangle test by trained panelists. The following applies: determined in water. As to the method:
Prior to sensory analysis, the purity of the synthetic taste compounds was checked by GC/MS. Determination of the cooling, as well as the aroma threshold, of the compounds was performed by trained panelists. Nasal odor thresholds (Guth, H.; Grosch, W. J. Am. Oil Chem. Soc. 1993, 70, 513-518), as well as cooling thresholds, were determined by triangle tests using tap water as the solvent. The samples were presented in order of increasing concentrations and the threshold values evaluated in three separate sessions were averaged. The values between individuals and separate sessions differed by not more than one dilution step.

Assay [2] is described as follows: Cooling threshold in milk chocolate. The following applies: for Cooling effect [mg/100 g chocolate]: cooling threshold in milk chocolate. From the text: In an additional experiment, the cooling thresholds of 3-MPC, 5-MPC, MPF, 2(5H)-MPF and 2(5H)-DMPF have been determined in chocolate. […] The ratio for compounds of the invention is typically less than that of menthol, preferably less than 9, more preferably less than about 3. In other embodiments, the cooling threshold to odor threshold ratio is less than about 1 or less than about 0.1.

Assay [3] concerns skin surface on the inside of the right forearm. The assay can be described thus: Topical testing of cooling intensity on the forearm. The following applies: scale 0 (no effect) to 5 (very strong). Here is the method: Topical thresholds of cooling compounds 5-MPF, 2(5H)-DMPF, 2(5H)-MPF and MPF were determined as follows: An aliquot (0.5 mL) of a solution, […], was applied to a circular area (10 cm^2) of the skin surface on the inside of the right forearm, midway between the wrist and the elbow, and were rubbed for 1 min. In parallel, an aliquot (0.5 mL) of pure tap water was applied as the blank onto the skin of the left forearm. After 1 min, the skin was dried. A panel of 10 subjects (male and female) were asked to rank the cooling intensity on a scale from 0 (no effect) to 5 (very strong). The values evaluated in three different sessions at two days were averaged. The values between individuals and separate sessions differed not more than 2 scores.

The nature of assay [4]: Application in ice cream. The following applies: 20 mg/kg in ice cream. Here is the method:
Full-fat cream (250 g), milk (250 ml) and sugar (100 g) were mixed and stirred until the sugar was dissolved. Then the mixture was poured into an ice cream machine (Il Gelataio Super, Simac Inc., Gessate, Italy) and frozen within 30 minutes while stirring. In the same way, ice cream was prepared with 5-MPC (20 mg/kg). […] The cool refreshing impression of this ice cream persisted much longer than with the unflavored reference compound.

Assay [5] relates to mouth cavity. Description: Evaluation of cooling substances in orange juice. As to the method:
Several cooling substances were evaluated in orange juice.

The subject of assay [6] is mouth. The assay can be described thus: Taste testing of sugar confectionery (candies). As to the method: Sugar (100 g) was heated together with water (15 g) in a beaker on a hot plate. After the mixture became a clear solution, the sugar syrup was heated further until it became viscous due to the evaporation of water. Then 5-MPC (20 mg) and MPF (100 mg), respectively, were added. The viscous liquid was then poured into molds (3 g each) and cooled down to room temperature. The candies, which had been formed in the molds, were demolded and used for taste testing.

The nature of assay [7]: Tasting of cooling compounds in Vittel mineral water. Here is the method:
Solutions of 10%-menthol, 10% 5-MPC and 10% MPF, respectively, in ethanol were diluted with Vittel™ mineral water. The solutions were tasted and compared with pure Vittel™ water.

Compound `CCC1CC=C(N2CCCC2)C1=O` (stereo not drawn) [5-EPC, 5-Ethyl-2-(1-pyrrolidinyl)-2-cyclopenten-1-one] returned a Cooling threshold in assay [1] of 27 to 43 mg/kg.
`CC1=C(N2CCCC2)C(=O)CC1C` (stereo not drawn) [3,4-DMPC, 3,4-Dimethyl-2-(1-pyrrolidinyl)-2-cyclopenten-1-one]: the Cooling threshold in assay [1] was 51 to 86 mg/kg.
`CC1=C(N2CCCCC2)C(=O)CC1` [3-MPipC, 3-Methyl-2-(1-piperidinyl)-2-cyclopenten-1-one] came in with a Cooling threshold in assay [1] of 60 to 100 mg/kg.
As to `CC1CC=C(N2CCCCC2)C1=O` (stereo not drawn) [5-MpipC, 5-Methyl-2-(1-piperidinyl)-2-cyclopenten-1-one], in assay [1], the Cooling threshold lay in the range of 16 to 24 mg/kg.
In assay [1], `CC1=C(N2CCCC2)C(=O)CCC1` [3-MPCH, 3-Methyl-2-(1-pyrrolidinyl)-2-cyclohexen-1-one] registered a Cooling threshold of 90 to 150 mg/kg.
The same measure, in the same setting: with `CC1C=C(N2CCCC2)C(=O)C1C` (stereo not drawn) [4,5-DMPC, 4,5-Dimethyl-2-(1-pyrrolidinyl)-2-cyclopenten-1-one] the figure was 68 to 113 mg/kg.
Still for that read-out and setting: with `COC(=O)C1CCCN1C1=CCC(C)C1=O` (stereo not drawn) [5-MMeproC, 5-Methyl-2-(2-methoxycarbonyl-1-pyrrolidinyl)-2-cyclopentene-1-one] the figure was 112 to 188 mg/kg; with `CC1CCC=C(N2CCCC2)C1=O` (stereo not drawn) [6-MPCH, 6-Methyl-2-(1-pyrrolidinyl)-2-cyclohexen-1-one], 27 to 45 mg/kg; with `CCN(CC)C1=CCC(C)C1=O` (stereo not drawn) [5-MdeaC, 5-Methyl-2-diethylamino-2-cyclopenten-1-one], 12 to 20 mg/kg.
As to `CC1=C(N2CCCC2)C(=O)OC1C` (stereo not drawn) [2(5H)-DMPF, 4,5-Dimethyl-3-(1-pyrrolidinyl)-2(5H)-furanone], the “Cooling effect [mg/100 g chocolate]” value in assay [2] is reported as 5.0-7.5 mg/100 g chocolate. The Cooling intensity in assay [3] (0.00625 % in tap water) is given as 0; in assay [3] (0.0125 % in tap water) it was 1; in assay [3] (0.025 % in tap water) it was 3; in assay [3] (0.05 % in tap water), 5; in assay [3] (0.1 % in tap water) it was 5; in assay [3] (0.2 % in tap water) it was 5. Further, the Cooling intensity in assay [3] (0.5 % in tap water) and in assay [3] (1.0 % in tap water) was 5 each time. Further, the Cooling threshold in assay [1] was 2.0 to 4.0 mg/kg.
Consider `CC1CC=C(N2CCCC2)C1=O` (stereo not drawn) [5-MPC, 5-Methyl-2-(1-pyrrolidinyl)-2-cyclopenten-1-one], for which the cooling effect result in assay [4] is listed as “pronounced long lasting cooling effect”; in assay [5] (200 mg/L in orange juice) it was “strong cooling effect”. Besides, the “Cooling effect [mg/100 g chocolate]” value in assay [2] is 2.3-3.7 mg/100 g chocolate. In addition, the “fold higher cooling threshold than 2(5H)-MPF” value in assay [2] (in chocolate, compared with 2(5H)-MPF) was determined as 8 fold. In addition, the “cooling effect in the mouth” value in assay [6] (20 mg added to syrup of 100 g sugar) was “pronounced cooling effect”. Further, the Cooling intensity in assay [3] (0.00020 % in tap water), in assay [3] (0.00039 % in tap water), in assay [3] (0.00078 % in tap water), in assay [3] (0.00156 % in tap water), in assay [3] (0.00313 % in tap water) and in assay [3] (0.00625 % in tap water) was 0 throughout. Besides, the Cooling intensity in assay [3] (0.0125 % in tap water) is listed as 0; in assay [3] (0.025 % in tap water), 0; in assay [3] (0.05 % in tap water) it was 0; in assay [3] (0.1 % in tap water), 0; in assay [3] (0.2 % in tap water), 1; in assay [3] (0.5 % in tap water) it was 3. Further, the Cooling intensity in assay [3] (1.0 % in tap water) was 5. Also, the Cooling threshold in assay [1] was 4.5 to 9 mg/kg.
Take `CC1CCC(C(C)C)C(O)C1` (single isomer, unassigned; (-)) [(−)-Menthol, reference compound]: the cooling effect entry in assay [5] (20 mg/L in orange juice) is recorded as “strong cooling effect”. This compound had a Cooling threshold in assay [1] of 0.9 to 1.9 mg/kg. In addition, the “Flavor: cooling effect” value in assay [7] (10 mg/L in Vittel mineral water) is “Pronounced cooling effect, strong”.
Regarding `CC1=C(N2CCCC2)C(=O)CC1` [3-MPC, 3-Methyl-2-(1-pyrrolidinyl)-2-cyclopenten-1-one], in assay [2], the “Cooling effect [mg/100 g chocolate]” value is recorded as 38-63 mg/100 g chocolate. In assay [1], this compound gave a Cooling threshold of 29 to 44 mg/kg.
As for `CC1=C(N2CCCC2C(=O)O)C(=O)CC1` (stereo not drawn) [3-MProC, 3-Methyl-2-(2-carboxy-1-pyrrolidinyl)-2-cyclopentene-1-one], in assay [1], the Cooling threshold lay in the range of 490 to 735 mg/kg.
As to `CC1=C(N2CCCC2)C(=O)OC1` [2(5H)-MPF, 4-Methyl-3-(1-pyrrolidinyl)-2(5H)-furanone], the “Cooling effect [mg/100 g chocolate]” value in assay [2] is listed as 0.25-0.5 mg/100 g chocolate. The Cooling intensity was 0 in assay [3] (0.00020 % in tap water); 1 in assay [3] (0.00039 % in tap water); 2 in assay [3] (0.00078 % in tap water); 3 in assay [3] (0.00156 % in tap water); 5 in assay [3] (0.00313 % in tap water); 5 in assay [3] (0.00625 % in tap water). In assay [1], this compound registered a Cooling threshold of 0.02 to 0.06 mg/kg.
On to `CC1=C(N2CCCC2)C(=O)C(C)C1` (stereo not drawn) [3,5-DMPC, 3,5-Dimethyl-2-(1-pyrrolidinyl)-2-cyclopenten-1-one], for which, in assay [1], the Cooling threshold was 33 to 54 mg/kg.
On to `CC1=C(N2CCCC2)C(=O)CO1` [MPF, 5-Methyl-4-(1-pyrrolidinyl)-3(2H)-furanone], for which the cooling effect result in assay [5] (1000 mg/L in orange juice) was “pronounced cooling effect”. The “Cooling effect [mg/100 g chocolate]” value in assay [2] is 0.8-1.5 mg/100 g chocolate. Moreover, the “cooling effect in the mouth” value in assay [6] (100 mg added to syrup of 100 g sugar) is reported as “pronounced cooling effect”. Also, the Cooling intensity in assay [3] (0.00020 % in tap water), in assay [3] (0.00039 % in tap water), in assay [3] (0.00078 % in tap water), in assay [3] (0.00156 % in tap water), in assay [3] (0.00313 % in tap water) and in assay [3] (0.00625 % in tap water) was 0 in each case. Moreover, the Cooling intensity in assay [3] (0.0125 % in tap water) was 0; in assay [3] (0.025 % in tap water), 0; in assay [3] (0.05 % in tap water), 1; in assay [3] (0.1 % in tap water) it was 2; in assay [3] (0.2 % in tap water), 4; in assay [3] (0.5 % in tap water), 5. This compound gave a Cooling intensity in assay [3] (1.0 % in tap water) of 5. This compound also displayed a Cooling threshold in assay [1] of 1.5 to 3.0 mg/kg. In assay [7] (400 mg/L in Vittel mineral water), the “Flavor: cooling effect” value was “Pronounced cooling effect”.
In assay [1], `CC1=C(N2CCCC2)C(=O)C(C)O1` (stereo not drawn) [DMPF, 2,5-Dimethyl-4-(1-pyrrolidinyl)-3(2H)-furanone] returned a Cooling threshold of 100 to 140 mg/kg.
